Earlier results as cited in publication PMC9516332 (Frontiers in Oncology, 2022).
Like-named read-outs stand apart in the source and are kept apart here.

Assays:
Details in all cases: cited from earlier work
[1] = molecular target: panel of 255 wild-type kinases (Homo sapiens, UniProt P07949)
[2] = molecular target: T1, panel of 255 wild-type kinases (Homo sapiens, UniProt Q92630)
T1 sequence (Q92630 1-601): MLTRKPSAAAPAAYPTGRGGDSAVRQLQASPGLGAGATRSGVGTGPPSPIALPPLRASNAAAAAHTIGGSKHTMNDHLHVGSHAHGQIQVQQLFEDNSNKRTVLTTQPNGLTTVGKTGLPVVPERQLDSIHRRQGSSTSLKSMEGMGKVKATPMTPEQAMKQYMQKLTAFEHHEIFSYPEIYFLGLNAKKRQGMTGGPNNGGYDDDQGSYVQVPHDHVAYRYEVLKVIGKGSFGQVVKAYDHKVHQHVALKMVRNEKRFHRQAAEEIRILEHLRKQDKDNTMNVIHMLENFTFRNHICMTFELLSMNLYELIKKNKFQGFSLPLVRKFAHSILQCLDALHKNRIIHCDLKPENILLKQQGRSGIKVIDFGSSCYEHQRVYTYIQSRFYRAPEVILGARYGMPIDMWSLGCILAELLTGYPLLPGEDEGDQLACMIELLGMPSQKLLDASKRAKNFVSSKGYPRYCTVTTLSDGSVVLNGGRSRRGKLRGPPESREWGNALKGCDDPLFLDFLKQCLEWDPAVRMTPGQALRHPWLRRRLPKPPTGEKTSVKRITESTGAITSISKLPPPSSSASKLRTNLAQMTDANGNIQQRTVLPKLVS

[3] = molecular target: panel of 255 wild-type kinases (Homo sapiens, UniProt Q8IU85)
[4] = molecular target: T2, panel of 255 wild-type kinases (Homo sapiens, UniProt Q9NWZ3)
T2 sequence (Q9NWZ3 1-460): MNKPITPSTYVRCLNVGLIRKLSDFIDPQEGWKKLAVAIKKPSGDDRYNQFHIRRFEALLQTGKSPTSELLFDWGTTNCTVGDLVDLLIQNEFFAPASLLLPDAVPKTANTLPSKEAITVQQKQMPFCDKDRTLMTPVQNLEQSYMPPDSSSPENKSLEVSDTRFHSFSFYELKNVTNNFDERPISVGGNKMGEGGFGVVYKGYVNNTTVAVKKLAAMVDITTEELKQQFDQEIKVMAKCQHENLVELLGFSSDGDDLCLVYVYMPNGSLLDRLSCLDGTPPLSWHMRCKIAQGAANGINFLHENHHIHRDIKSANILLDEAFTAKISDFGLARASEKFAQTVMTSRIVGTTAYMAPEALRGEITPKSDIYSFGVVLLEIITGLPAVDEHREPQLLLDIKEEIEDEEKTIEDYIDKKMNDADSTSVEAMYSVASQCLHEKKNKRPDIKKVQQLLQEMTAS

[5] = molecular target: panel of 255 wild-type kinases (Homo sapiens, UniProt P49137)
[6] = molecular target: panel of 255 wild-type kinases (Homo sapiens, UniProt P19525)
[7] = molecular target: panel of 255 wild-type kinases (Homo sapiens, UniProt P51812)
[8] = molecular target: panel of 255 wild-type kinases (Homo sapiens, UniProt P09619)
[9] = molecular target: T3, panel of 255 wild-type kinases (Homo sapiens, UniProt Q9BZL6)
T3 sequence (Q9BZL6 1-878): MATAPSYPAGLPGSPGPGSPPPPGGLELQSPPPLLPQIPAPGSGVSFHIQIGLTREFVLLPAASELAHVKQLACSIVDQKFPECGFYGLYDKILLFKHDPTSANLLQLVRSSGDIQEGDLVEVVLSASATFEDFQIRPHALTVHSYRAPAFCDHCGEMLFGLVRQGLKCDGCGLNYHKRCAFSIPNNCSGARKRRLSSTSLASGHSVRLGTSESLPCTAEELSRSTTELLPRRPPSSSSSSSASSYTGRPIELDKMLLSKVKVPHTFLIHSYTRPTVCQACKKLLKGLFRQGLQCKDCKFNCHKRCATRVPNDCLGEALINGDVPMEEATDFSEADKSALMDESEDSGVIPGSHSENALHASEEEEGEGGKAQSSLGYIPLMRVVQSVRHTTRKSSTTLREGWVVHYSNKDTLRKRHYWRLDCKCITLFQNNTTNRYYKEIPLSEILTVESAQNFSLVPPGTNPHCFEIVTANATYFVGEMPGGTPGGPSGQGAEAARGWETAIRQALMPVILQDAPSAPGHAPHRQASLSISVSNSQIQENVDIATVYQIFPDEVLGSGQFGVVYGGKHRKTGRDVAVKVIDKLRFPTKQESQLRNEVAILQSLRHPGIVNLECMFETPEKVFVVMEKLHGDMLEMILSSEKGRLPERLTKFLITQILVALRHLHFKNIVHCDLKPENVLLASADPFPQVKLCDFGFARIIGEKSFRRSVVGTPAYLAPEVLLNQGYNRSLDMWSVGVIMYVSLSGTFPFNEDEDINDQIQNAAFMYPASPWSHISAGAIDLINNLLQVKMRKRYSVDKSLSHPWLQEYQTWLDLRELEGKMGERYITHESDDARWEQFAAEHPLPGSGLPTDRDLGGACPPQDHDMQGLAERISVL

[10] = kinase RET, 1 µmol/L single concentration, ref DOI: 10.1158/1535-7163.MCT-18-0877
[11] = kinase DYRK2, 1 µmol/L single concentration, ref DOI: 10.1158/1535-7163.MCT-18-0877
[12] = CaMK1δ kinase assay, 1 µmol/L single concentration, ref DOI: 10.1158/1535-7163.MCT-18-0877
[13] = kinase IRAK4, 1 µmol/L single concentration, ref DOI: 10.1158/1535-7163.MCT-18-0877
[14] = kinase MAPKAPK2, 1 µmol/L single concentration, ref DOI: 10.1158/1535-7163.MCT-18-0877
[15] = kinase PKR, 1 µmol/L single concentration, ref DOI: 10.1158/1535-7163.MCT-18-0877
[16] = kinase RSK2, 1 µmol/L single concentration, ref DOI: 10.1158/1535-7163.MCT-18-0877
[17] = kinase PDGFRβ, 1 µmol/L single concentration, ref DOI: 10.1158/1535-7163.MCT-18-0877
[18] = kinase PKD2, 1 µmol/L single concentration, ref DOI: 10.1158/1535-7163.MCT-18-0877
[19] = kinase RET, 1 µmol/L single concentration, ref DOI: 10.1371/journal.pone.0092146
[20] = kinase DYRK2, 1 µmol/L single concentration, ref DOI: 10.1371/journal.pone.0092146
[21] = kinase PKD2, 1 µmol/L single concentration, ref DOI: 10.1371/journal.pone.0092146
[22] = CaMK1δ kinase assay, 1 µmol/L single concentration, ref DOI: 10.1371/journal.pone.0092146
[23] = kinase IRAK4, 1 µmol/L single concentration, ref DOI: 10.1371/journal.pone.0092146
[24] = kinase MAPKAPK2, 1 µmol/L single concentration, ref DOI: 10.1371/journal.pone.0092146
[25] = kinase PKR, 1 µmol/L single concentration, ref DOI: 10.1371/journal.pone.0092146
[26] = kinase RSK2, 1 µmol/L single concentration, ref DOI: 10.1371/journal.pone.0092146
[27] = kinase PDGFRβ, 1 µmol/L single concentration, ref DOI: 10.1371/journal.pone.0092146

Structure (SMILES)	%-inhibition at 1 µmol/L, RET [1, 10] [%]	%-inhibition at 1 µmol/L, DYRK2 [2, 11] [%]	%-inhibition CaMK1δ [3, 12] [%]	%-inhibition at 1 µmol/L, IRAK4 [4, 13] [%]	%-inhibition at 1 µmol/L, MAPKAPK2 [5, 14] [%]	%-inhibition at 1 µmol/L, PKR [6, 15] [%]	%-inhibition at 1 µmol/L, RSK2 [7, 16] [%]	%-inhibition at 1 µmol/L, PDGFRβ [8, 17] [%]	%-inhibition at 1 µmol/L, PKD2 [9, 18] [%]	%-inhibition at 1 µmol/L, DYRK2 [2, 20] [%]	also measured
O=C(c1ccc(F)c(F)c1Nc1ccc(I)cc1F)N1CC(O)([C@@H]2CCCCN2)C1 [cobimetinib]	4	-2.74	1	-4.31	-7	0.867	6	2	-11		
CC(C)(C)c1nc(-c2cccc(NS(=O)(=O)c3c(F)cccc3F)c2F)c(-c2ccnc(N)n2)s1 [dabrafenib]										6	%-inhibition at 1 µmol/L, RET [1, 19]: 49%; %-inhibition at 1 µmol/L, PKD2 [9, 21]: 82%
Cc1cc(Nc2ncc(Cl)c(Nc3ccccc3S(=O)(=O)C(C)C)n2)c(OC(C)C)cc1C1CCNCC1 [ceritinib]	32	6.41	48	1.3	-14	-1	83	55	25		
CCc1cc2c(cc1N1CCC(N3CCOCC3)CC1)C(C)(C)c1[nH]c3cc(C#N)ccc3c1C2=O [alectinib]	91	6	-3.42	19	-5.66	5.33	14	26	-1.05		
CCCS(=O)(=O)Nc1ccc(F)c(C(=O)c2c[nH]c3ncc(-c4ccc(Cl)cc4)cc23)c1F [vemurafenib]										1	%-inhibition at 1 µmol/L, RET [1, 19]: 32%; %-inhibition CaMK1δ [3, 22]: -7%; %-inhibition at 1 µmol/L, IRAK4 [4, 23]: -4.29%; %-inhibition at 1 µmol/L, MAPKAPK2 [5, 24]: -16%; %-inhibition at 1 µmol/L, PKR [6, 25]: -0.765%; %-inhibition at 1 µmol/L, RSK2 [7, 26]: -2.31%; %-inhibition at 1 µmol/L, PDGFRβ [8, 27]: 33%; %-inhibition at 1 µmol/L, PKD2 [9, 21]: -13%
COc1cc(N2CCC(N3CCN(C)CC3)CC2)ccc1Nc1ncc(Cl)c(Nc2ccccc2P(C)(C)=O)n1 [brigatinib]											%-inhibition at 1 µmol/L, RET [1]: 96%; %-inhibition at 1 µmol/L, DYRK2 [2]: 29%; %-inhibition CaMK1δ [3]: 62%; %-inhibition at 1 µmol/L, IRAK4 [4]: 46%; %-inhibition at 1 µmol/L, MAPKAPK2 [5]: -14%; %-inhibition at 1 µmol/L, PKR [6]: 14%; %-inhibition at 1 µmol/L, RSK2 [7]: 97%; %-inhibition at 1 µmol/L, PDGFRβ [8]: 94%; %-inhibition at 1 µmol/L, PKD2 [9]: 86%
CC(=O)Nc1cccc(-n2c(=O)n(C3CC3)c(=O)c3c(Nc4ccc(I)cc4F)n(C)c(=O)c(C)c32)c1 [trametinib]										-0.0865	%-inhibition at 1 µmol/L, RET [1, 19]: -8%; %-inhibition CaMK1δ [3, 22]: -3.3%; %-inhibition at 1 µmol/L, IRAK4 [4, 23]: -5%; %-inhibition at 1 µmol/L, MAPKAPK2 [5, 24]: -0.335%; %-inhibition at 1 µmol/L, PKR [6, 25]: 1.13%; %-inhibition at 1 µmol/L, RSK2 [7, 26]: -1.76%; %-inhibition at 1 µmol/L, PDGFRβ [8, 27]: 3.44%; %-inhibition at 1 µmol/L, PKD2 [9, 21]: -3.28%
CC#CC(=O)N1CCC[C@H]1c1nc(-c2ccc(C(=O)Nc3ccccn3)cc2)c2c(N)nccn12 [acalabrutinib]	14	-16	-5	-6.55	-21	7	0.054	5.36	-10		
C=CC(=O)Nc1cc(Nc2nccc(-c3cn(C)c4ccccc34)n2)c(OC)cc1N(C)CCN(C)C [osimertinib]	7	45	9	-2.76	-9	6	42	87	16		
CO[C@@H]1[C@H](N(C)C(=O)c2ccccc2)C[C@H]2O[C@]1(C)n1c3ccccc3c3c4c(c5c6ccccc6n2c5c31)C(=O)NC4 [midostaurin]	94			27	-12	32	99	100			
C[C@@H](Oc1cc(-c2cnn(C3CCNCC3)c2)cnc1N)c1c(Cl)ccc(F)c1Cl [crizotinib]										10	%-inhibition CaMK1δ [3, 22]: -4%; %-inhibition at 1 µmol/L, IRAK4 [4, 23]: 8%; %-inhibition at 1 µmol/L, MAPKAPK2 [5, 24]: -17%; %-inhibition at 1 µmol/L, PKR [6, 25]: 6%; %-inhibition at 1 µmol/L, RSK2 [7, 26]: 0.217%; %-inhibition at 1 µmol/L, PDGFRβ [8, 27]: 18%
